The source of these data is patent publication US10106535B2, “Histone deacetylase inhibitors and compositions and methods of use thereof” (CHDI Foundation, Inc., priority 2013, dated 2018).

A value given as a limit tells only on which side of the number the result lay.

One experiment deals with cellular histone deacetylase enzymatic activity in Jurkat E6-1 cells. Put plainly: Inhibition of cellular HDAC activity in Jurkat E6-1 cells, fluorogenic substrate Boc-Lys(Tfa)-AMC. As to conditions: Homo sapiens, read-out: Cell IC50. The format is cell-based. An excerpt:
Example 50: Analysis of Inhibition of Cellular HDAC Activity with Class IIa Histone Deacetylase (HDAC) Inhibitors
The potency of Class IIa Histone Deacetylase (HDAC) inhibitors is quantified by measuring the cellular histone deacetylase enzymatic activity using the fluorogenic substrate, Boc-Lys(Tfa)-AMC. After penetration in Jurkat E6-1 cells, the substrate is deacetylated to Boc-Lys-AMC. After cell lysis and cleavage by trypsin, the fluorophore AMC is released from the deacetylated substrate only. The fluorescence of the sample is directly related to the histone deacetylase activity in the sample.
Jurkat E6.1 cells are cultured according to standard cell culture protocols in Jurkat E6.1 Growth Media (RPMI without phenol red, 10% FBS, 10 mM HEPES, and 1 mM Sodium Pyruvate). Jurkat E6.1 cells are counted using a Coulter Counter and resuspended in Jurkat E6.1 growth media at a concentration of 75,000 cells/35 μl. 35 μl or 75,000 cells is seeded into Greiner microtitre assay plates. The plates are then incubated at 37° C. and 5% CO2 while other assay components are being prepared.
(§1) Serial dilutions of the HDAC inhibitors and control reference compound (1-(5-(3-((4-(1,3,4-oxadiazol-2-yl)phenoxy)methyl)-1,2,4-oxadiazol-5-yl)thiophen-2-yl)-2,2,2-trifluoroethanone) are made by first resuspending the lyophilized compound to a final concentration of 10 mM in 100% DMSO. Stocks of 70 μl aliquots of the 10 mM compound in DMSO are prepared and stored at −20° C. From one stock aliquot of each compound to be tested and the reference compound, a 16-point serial dilution is prepared according to Table 1 using a 125 μl 16-channel Matrix multi-channel pipette.
2 μl (200×) of each diluted solution and each control (full activity: 100% DMSO alone or full inhibition 1 mM) is stamped into V-bottom polypropylene 384-well compound plates using either the Bravo, Janus, or 12.5 μl 16-channel Matrix multi-channel pipette. Each well with the 200× compound solution is diluted 1:20 by the addition of 38 μl Jurkat assay buffer+DMSO (9.5% DMSO, RPMI without phenol red, 0.09% FBS, 9 mM Hepes, and 0.9 mM Sodium Pyruvate equilibrated to room temperature)
5× (500 μM) substrate is prepared just prior to the addition to the assay. The 5× substrate is prepared by diluting a 100 mM Boc-Lys(Tfa)-AMC in DMSO solution 1:200 by adding it drop-wise to Jurkat assay medium (RPMI without phenol red, 0.1% FBS, 10 mM Hepes, and 1 mM Sodium Pyruvate equilibrated to 37° C.) while vortexing at slow speed to prevent precipitation.
10 ml of 3× lysis buffer is prepared with 8.8 ml of 3× stock lysis buffer (50 mM Tris-HCl, pH 8.0, 137 mM NaCl, 2.7 mM KCl, 1 mM MgCl2, 1% Nonidet P40 Substitute equilibrated to room temperature) and 1.2 ml of 3 mg/ml Trypsin equilibrated to room temperature.
5 μl of each solution of 1:20 diluted compound from above is transferred to the Greiner microtitre assay plates with 75,000 cells/well using the Bravo. Cells are then incubated for 2 hours at 37° C. and 5% CO2. The assay is then started by adding 10 μl of 5× (500 μM) substrate to the assay plate using either the Bravo or 16-channel Matrix multi-channel pipette. The cells are then incubated for 3 hours at 37° C. and 5% CO2. Next, 25 μl of 3× lysis buffer is added to each well using either the 125 μl 16 channel pipette or the Bravo. The assay plate is then incubated overnight (15-16 hours) at 37° C. and 5% CO2. The following day, the plates are shaken on an orbital shaker for 1 minute at 900 rpm. Finally the top read fluorescence (Excitation: 355 nm, Emission: 460 nm) is measured using PerkinElmer EnVision.
Turning to `Cc1c(F)cccc1C1(C(=O)NO)CC=C(c2ccc3nccnc3c2)CC1` (stereo not drawn) [Example 45, 3′-fluoro-N-hydroxy-2′-methyl-4-(quinoxalin-6-yl)-1,2,3,6-tetrahydro-[1,1′-biphenyl]-1-carboxamide], the IC50 (in general, the concentration that inhibits the measured activity by half) was found to be 520 nM.
Still for that read-out and setting: the result for `O=C(NO)[C@]1(c2ccccc2)C=C(c2cncc(F)c2)CC1` [Example 35, (S)-3-(5-fluoropyridin-3-yl)-N-hydroxy-1-phenylcyclopent-2-enecarboxamide] reads 3100 nM; that for `Cc1ncc(C2=C[C@@](C(=O)NO)(c3cccc(F)c3C)CC2)cn1` [Example 9, (R)-1-(3-fluoro-2-methylphenyl)-N-hydroxy-3-(2-methylpyrimidin-5-yl)cyclopent-2-enecarboxamide], over 50000 nM.
On the same count and under the same terms, in the case of `Cc1c(F)cccc1C1(C(=O)NO)CC=C(c2cncc(F)c2)CC1` (stereo not drawn) [Example 44, 3′-fluoro-4-(5-fluoropyridin-3-yl)-N-hydroxy-2′-methyl-1,2,3,6-tetrahydro-[1,1′-biphenyl]-1-carboxamide] it was 670 nM.
Same read-out and setting: in the case of `Cc1c(F)cccc1[C@@]1(C(=O)NO)C=C(c2ccc(F)cn2)CC1` [Example 15, (S)-1-(3-fluoro-2-methylphenyl)-3-(5-fluoropyridin-2-yl)-N-hydroxycyclopent-2-enecarboxamide] it was 310 nM.
With `Cc1ncc(C2=C[C@](C(=O)NO)(c3cccc(F)c3C)CC2)cc1Cl` [Example 26, (S)-3-(5-chloro-6-methylpyridin-3-yl)-1-(3-fluoro-2-methylphenyl)-N-hydroxycyclopent-2-enecarboxamide], the IC50 turned out to be 80 nM.
Turning to `O=C(NO)C1(c2ccccc2)CC=CC1` [Example 30, N-hydroxy-1-phenyl-cyclopent-3-enecarboxamide], the IC50 is over 50000 nM.
Still for that read-out and setting: the result for `Cc1ncc(Cl)cc1C1=C[C@](C(=O)NO)(c2cccc(F)c2C)CC1` [Example 36, (S)-3-(5-chloro-2-methylpyridin-3-yl)-1-(3-fluoro-2-methylphenyl)-N-hydroxycyclopent-2-enecarboxamide] reads 120 nM; that for `Cc1ccc(C2=C[C@](C(=O)NO)(c3cccc(F)c3C)CC2)cn1` [Example 25, (S)-1-(3-fluoro-2-methylphenyl)-N-hydroxy-3-(6-methylpyridin-3-yl)cyclopent-2-enecarboxamide], 120 nM.
The same measure, in the same setting: in the case of `Cc1c(F)cccc1[C@]1(C(=O)NO)C=C(c2ccccc2)CC1` [Example 1, (R)-1-(3-fluoro-2-methylphenyl)-N-hydroxy-3-phenylcyclopent-2-enecarboxamide] it was over 50000 nM; in that of `Cc1ncccc1C1=C[C@](C(=O)NO)(c2cccc(F)c2C)CC1` [Example 37, (S)-1-(3-fluoro-2-methylphenyl)-N-hydroxy-3-(2-methylpyridin-3-yl)cyclopent-2-enecarboxamide], 90 nM; in that of `Cc1c(F)cccc1[C@@]1(C(=O)NO)C=C(c2ccc3scnc3c2)CC1` [Example 40, (S)-3-(benzo[d]thiazol-5-yl)-1-(3-fluoro-2-methylphenyl)-N-hydroxycyclopent-2-enecarboxamide], 50 nM.
The same measure, in the same setting: in the case of `Cc1c(F)cccc1[C@@]1(C(=O)NO)C=C(c2ccc3cnn(C)c3c2)CC1` [Example 38, (S)-1-(3-fluoro-2-methylphenyl)-N-hydroxy-3-(1-methyl-1H-indazol-6-yl)cyclopent-2-enecarboxamide] it was 10 nM; in that of `Cc1c(F)cccc1[C@]1(C(=O)NO)C=C(c2cncc(F)c2)CC1` [Example 5, (R)-1-(3-fluoro-2-methylphenyl)-3-(5-fluoropyridin-3-yl)-N-hydroxycyclopent-2-enecarboxamide], 6800 nM; in that of `Cc1c(F)cccc1[C@@]1(C(=O)NO)C=C(c2cc3ccccc3s2)CC1` [Example 41, (S)-3-(benzo[b]thiophen-2-yl)-1-(3-fluoro-2-methylphenyl)-N-hydroxycyclopent-2-enecarboxamide], 40 nM.
With `Cc1c(F)cccc1[C@@]1(C(=O)NO)C=C(c2cncc(F)c2)CC1` [Example 6, (S)-1-(3-fluoro-2-methylphenyl)-3-(5-fluoropyridin-3-yl)-N-hydroxycyclopent-2-enecarboxamide], the IC50 came to 160 nM.
Take `Cc1ncc(C2=C[C@](C(=O)NO)(c3cccc(F)c3C)CC2)cn1` [Example 10, (S)-1-(3-fluoro-2-methylphenyl)-N-hydroxy-3-(2-methylpyrimidin-5-yl)cyclopent-2-enecarboxamide]: the IC50 turned out to be 380 nM.

The next experiment deals with human catalytic domain HDAC4 protein (amino acids 648-1032) (Homo sapiens (Human), UniProt P56524). Put plainly: Inhibition of HDAC4 catalytic domain enzymatic activity, fluorogenic substrate Boc-Lys(Tfa)-AMC. The following applies: read-out: Biochemical HDAC-4 IC50.
human catalytic domain HDAC4 protein (amino acids 648-1032), sequence (P56524 648-1032): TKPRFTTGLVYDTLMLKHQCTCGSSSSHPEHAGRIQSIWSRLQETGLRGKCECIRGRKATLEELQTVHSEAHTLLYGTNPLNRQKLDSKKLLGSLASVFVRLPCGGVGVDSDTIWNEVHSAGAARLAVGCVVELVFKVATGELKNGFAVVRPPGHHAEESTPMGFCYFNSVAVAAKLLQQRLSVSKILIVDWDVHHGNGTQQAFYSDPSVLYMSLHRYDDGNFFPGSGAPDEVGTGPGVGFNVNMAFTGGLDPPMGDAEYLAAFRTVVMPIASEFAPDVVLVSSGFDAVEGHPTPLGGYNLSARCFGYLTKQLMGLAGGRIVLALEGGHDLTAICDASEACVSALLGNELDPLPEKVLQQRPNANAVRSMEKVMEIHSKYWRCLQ
Source text: The potency of Class IIa Histone Deacetylase (HDAC) inhibitors is quantified by measuring the Histone Deacetylase 4 (HDAC4) catalytic domain enzymatic activity using the fluorogenic substrate, Boc-Lys(Tfa)-AMC. The substrate is deacetylated to Boc-Lys-AMC by HDAC4. Cleavage by trypsin results in the release of the fluorophore AMC from the deacetylated substrate. The fluorescence of the sample is directly related to the histone deacetylase activity in the sample.
as §1, with “100% dimethyl sulfoxide (DMSO).” for “100% DMSO.”, “of 60” for “of 70”, “Table 7” for “Table 1”, “multi-channel pipette (Matrix Technologies Ltd). […]” for “multi-channel pipette.”
5 μl of each solution of 1:20 diluted compound from above is transferred to a clear bottomed, black, 384-well assay plate using the Bravo or the Janus (384-well MDT head from Perkin Elmer). […] Finally, the fluorescence is measured (Excitation: 355 nm, Emission: 460 nm) using PerkinElmer EnVision in top read mode.
Regarding `Cc1ncc(C2=C[C@](C(=O)NO)(c3cccc(F)c3C)CC2)cn1` [Example 10, (S)-1-(3-fluoro-2-methylphenyl)-N-hydroxy-3-(2-methylpyrimidin-5-yl)cyclopent-2-enecarboxamide], the IC50 is 40 nM.
